These results are taken from patent publication US9695154B2, “Heteroaryl inhibitors of sumo activating enzyme” (MILLENNIUM PHARMACEUTICALS, INC., priority 2013, dated 2017).

This assay addresses T1, recombinant human SAE enzyme (Homo sapiens, UniProt Q9UBT2).
T1 sequence (Q9UBT2 1-640): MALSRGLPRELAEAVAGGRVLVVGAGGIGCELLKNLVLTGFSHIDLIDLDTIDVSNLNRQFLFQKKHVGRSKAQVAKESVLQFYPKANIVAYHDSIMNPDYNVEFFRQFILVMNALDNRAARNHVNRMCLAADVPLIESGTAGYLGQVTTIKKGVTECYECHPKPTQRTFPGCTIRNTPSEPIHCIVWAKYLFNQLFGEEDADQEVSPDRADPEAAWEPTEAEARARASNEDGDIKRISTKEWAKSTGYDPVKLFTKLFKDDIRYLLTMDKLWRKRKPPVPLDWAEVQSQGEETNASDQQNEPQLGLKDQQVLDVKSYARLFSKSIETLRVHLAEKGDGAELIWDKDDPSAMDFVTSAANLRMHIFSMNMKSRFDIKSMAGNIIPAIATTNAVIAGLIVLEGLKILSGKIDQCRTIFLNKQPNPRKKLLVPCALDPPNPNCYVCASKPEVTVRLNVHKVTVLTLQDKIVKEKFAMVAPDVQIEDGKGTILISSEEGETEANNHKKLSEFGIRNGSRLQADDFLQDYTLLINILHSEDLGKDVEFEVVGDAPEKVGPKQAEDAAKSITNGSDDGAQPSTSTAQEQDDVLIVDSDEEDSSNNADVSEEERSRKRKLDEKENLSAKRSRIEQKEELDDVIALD
T1 sequence (Q9UBE0 1-346 partner): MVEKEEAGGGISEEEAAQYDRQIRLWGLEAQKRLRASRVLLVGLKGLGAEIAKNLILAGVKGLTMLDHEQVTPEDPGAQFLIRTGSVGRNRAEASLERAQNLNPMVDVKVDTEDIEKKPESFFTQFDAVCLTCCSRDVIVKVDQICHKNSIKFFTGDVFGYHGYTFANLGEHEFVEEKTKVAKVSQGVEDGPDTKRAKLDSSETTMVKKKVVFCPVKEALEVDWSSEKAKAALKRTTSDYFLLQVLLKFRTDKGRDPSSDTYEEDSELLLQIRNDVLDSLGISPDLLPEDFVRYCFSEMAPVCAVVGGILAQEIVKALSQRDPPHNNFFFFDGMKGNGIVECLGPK
Description: SAE HTRF Enzyme Assay. The format is biochemical. To be noted: for IC50: class symbols A-C; for inhibition at 0.111 µM: compound concentration 0.111 μM, read-out: Percent Inhibition. A digest of the protocol:
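Recombinant human SAE (0.11 nM) transferred Sumo-Flag (0.125 μM) to Ubc9-GST (0.01 μM) with 0.5 μM ATP in HEPES pH 7.5, MgCl2, GSH, BSA; 105 min at 24° C. EDTA stop, Eu-cryptate anti-Flag and XL-APC anti-GST added, 2 h, then HTRF read. Values given as % inhibition at one concentration or IC50.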

For `NS(=O)(=O)OC[C@H]1C[C@@H](Nc2ncncc2C(=O)c2ccn(Cc3ccc(F)c(Cl)c3)n2)[C@@H](F)[C@@H]1O` [Compound I-122, {(1R,2R,3R,4R)-4-[(5-{[1-(3-chloro-4-fluorobenzyl)-1H-pyrazol-3-yl]carbonyl}pyrimidin-4-yl)amino]-3-fluoro-2-hydroxycyclopentyl}methyl sulfamate], the IC50 was under 10 nM and the inhibition at 0.111 µM was 99%.
The corresponding values for `NS(=O)(=O)OC[C@H]1C[C@@H](Nc2ncncc2C(=O)c2ccn(Cc3cccc(F)c3)n2)[C@H](O)[C@@H]1O` [Compound I-123, {(1R,2R,3S,4R)-4-[(5-{[1-(3-fluorobenzyl)-1H-pyrazol-3-yl]carbonyl}pyrimidin-4-yl)amino]-2,3-dihydroxycyclopentyl}methyl sulfamate] are under 10 nM and 100%.
Turning to `NS(=O)(=O)OC[C@H]1C[C@@H](Nc2ccncc2C(=O)c2ccn(Cc3cccc(Cl)c3)c2)[C@@H](F)[C@@H]1O` [Compound I-124, {(1R,2R,3R,4R)-4-[(3-{[1-(3-chlorobenzyl)-1H-pyrrol-3-yl]carbonyl}pyridin-4-yl)amino]-3-fluoro-2-hydroxycyclopentyl}methyl sulfamate], the IC50 is under 10 nM and the inhibition at 0.111 µM amounted to 97%.
The corresponding values for `NS(=O)(=O)OC[C@H]1C[C@@H](Nc2ncncc2C(=O)c2ccn(CC(=O)c3ccccc3)n2)[C@H](O)[C@@H]1O` [Compound I-125, {(1R,2R,3S,4R)-2,3-Dihydroxy-4-[(5-{([1-(2-oxo-2-phenylethyl)-1H-pyrazol-3-yl]carbonyl}pyrimidin-4-yl)amino]cyclopentyl}methyl sulfamate] are under 10 nM and 99%.
The corresponding values for `NS(=O)(=O)OC[C@H]1C[C@@H](Nc2ncncc2C(=O)c2ccn(Cc3ccc(Cl)c(SC(F)(F)F)c3)n2)[C@H](O)[C@@H]1O` [Compound I-126, [(1R,2R,3S,4R)-4-({5-[(1-{4-chloro-3-[(trifluoromethyl)sulfanyl]benzyl}-1H-pyrazol-3-yl)carbonyl]pyrimidin-4-yl}amino)-2,3-dihydroxycyclopentyl]methyl sultamate] are under 10 nM and over 99%.
Take `NS(=O)(=O)OC[C@H]1C[C@@H](Nc2ncncc2C(=O)c2ccn(Cc3ccc(Cl)c(Br)c3)n2)[C@@H](F)[C@@H]1O` [Compound I-127, {(1R,2R,3R,4R)-4-[(5-{[1-(3-bromo-4-chlorobenzyl)-1H-pyrazol-3-yl]carbonyl}pyrimidin-4-yl)amino]-3-fluoro-2-hydroxycyclopentyl}methyl sulfamate]: the IC50 was under 10 nM and the inhibition at 0.111 µM was 99%.
The corresponding values for `Cc1cccc(Cn2ccc(C(=O)c3cncnc3N[C@@H]3C[C@H](COS(N)(=O)=O)[C@@H](O)C3)n2)c1` [Compound I-128, {(1R,2S,4R)-2-hydroxy-4-[(5-{[1-(3-methylbenzyl)-1H-pyrazol-3-yl]carbonyl}pyrimidin-4-yl)amino]cyclopentyl}methyl sulfamate] are under 10 nM and 98%.
`NS(=O)(=O)OC[C@H]1C[C@@H](Nc2ncncc2C(=O)c2ccn(Cc3cccc(C(F)(F)F)c3)c2)C[C@@H]1O` [Compound I-129, [(1R,2S,4R)-2-hydroxy-4-{[5-({1-[3-(trifluoromethyl)benzyl]-1H-pyrrol-3-yl}carbonyl)pyrimidin-4-yl]amino}cyclopentyl]methyl sulfamate]: the IC50 was under 10 nM and the inhibition at 0.111 µM was 99%.
The corresponding values for `NS(=O)(=O)OC[C@H]1C[C@@H](Nc2ncncc2C(=O)c2ccn(Cc3ccc(C(F)(F)F)o3)n2)[C@H](O)[C@@H]1O` [Compound I-130, [(1R,2R,3S,4R)-2,3-dihydroxy-4-({5-[(1-{[5-(trifluoromethyl)-2-furyl]methyl}-1H-pyrazol-3-yl)carbonyl]pyrimidin-4-yl}amino)cyclopentyl]methyl sulfamate] are under 10 nM and 98%.
Taken in the same sequence, the figures for `NS(=O)(=O)OC[C@H]1C[C@@H](Nc2ncncc2C(=O)c2ccn(Cc3cccc(OC(F)(F)F)c3)c2)[C@@H](F)[C@@H]1O` [Compound I-131, [(1R,2R,3R,4R)-3-Fluoro-2-hydroxy-4-{[5-({1-[3-(trifluoromethoxy)benzyl]-1H-pyrrol-3-yl}carbonyl)pyrimidin-4-yl]amino}cyclopentyl]methyl sulfamate] were under 10 nM and 96%.
The corresponding values for `NS(=O)(=O)OC[C@H]1C[C@@H](Nc2ccncc2C(=O)c2ccn(Cc3cccc(OC(F)(F)F)c3)c2)[C@@H](F)[C@@H]1O` [Compound I-132, [(1R,2R,3R,4R)-3-Fluoro-2-hydroxy-4-{[3-({1-[3-(trifluoromethoxy)benzyl]-1H-pyrrol-3-yl}carbonyl)pyridin-4-yl]amino}cyclopentyl]methyl sulfamate] are 10 to 100 nM and 78%.
Consider `NS(=O)(=O)OC[C@H]1C[C@@H](Nc2ncncc2C(=O)c2ccn(Cc3ccc(F)c(OC(F)(F)F)c3)n2)[C@H](O)[C@@H]1O` [Compound I-134, [(1R,2R,3S,4R)-4-{[5-({1-[4-fluoro-3-(trifluoromethoxy)benzyl]-1H-pyrazol-3-yl}carbonyl)pyrimidin-4-yl]amino}-2,3-dihydroxycyclopentyl]methyl sulfamate], for which the concentration for half-maximal inhibition (IC50) was under 10 nM and the inhibition at 0.111 µM came out at 98%.
The corresponding values for `NS(=O)(=O)OC[C@H]1C[C@@H](Nc2ncncc2C(=O)c2ccn(Cc3ccccc3)n2)[C@@H](O)[C@@H]1O` [Compound I-135, [(1R,2R,3R,4R)-4-({5-[(1-Benzyl-1H-pyrazol-3-yl)carbonyl]pyrimidin-4-yl}amino)-2,3-dihydroxycyclopentyl]methyl sulfamate] are 10 to 100 nM and 81%.
Taken in the same sequence, the figures for `NS(=O)(=O)NC[C@H]1C[C@@H](Nc2ncncc2C(=O)c2ccn(Cc3cccc(Cl)c3)n2)[C@H](O)[C@@H]1O` [Compound I-136, N-({(1R,2R,3S,4R)-4-[(5-{[1-(3-Chlorobenzyl)-1H-pyrazol-3-yl]carbonyl}pyrimidin-4-yl)amino]-2,3-dihydroxycyclopentyl}methyl)sulfuric diamide] were 10 to 100 nM and 88%.
Taken in the same sequence, the figures for `C[Si](C)(C)c1cccc(Cn2ccc(C(=O)c3cncnc3N[C@@H]3C[C@H](COS(N)(=O)=O)[C@@H](O)C3)n2)c1` [Compound I-137, [(1R,2S,4R)-2-hydroxy-4-{[5-({1-[3-(trimethylsilyl)benzyl]-1H-pyrazol-3-yl}carbonyl)pyrimidin-4-yl]amino}cyclopentyl]methyl sulfamate] were 10 to 100 nM and 78%.
As to `Cc1cc(C(=O)c2cncnc2N[C@@H]2C[C@H](COS(N)(=O)=O)[C@@H](O)[C@H]2O)nn1Cc1ccc(C(F)(F)F)o1` [Compound I-138, [(1R,2R,3S,4R)-2,3-Dihydroxy-4-({5-[(5-methyl-1-{[5-(trifluoromethyl)-2-furyl]methyl}-1H-pyrazol-3-yl)carbonyl]pyrimidin-4-yl}amino)cyclopentyl]methyl sulfamate], the IC50 was under 10 nM and the inhibition at 0.111 µM worked out at 99%.
Taken in the same sequence, the figures for `NS(=O)(=O)OC[C@H]1C[C@@H](Nc2ncncc2C(=O)c2nn(Cc3ccccc3)cc2Cl)[C@H](O)[C@@H]1O` [Compound I-139, [(1R,2R,3S,4R)-4-({5-[(1-benzyl-4-chloro-1H-pyrazol-3-yl)carbonyl]pyrimidin-4-yl}amino)-2,3-dihydroxycyclopentyl]methyl sulfamate] were under 10 nM and 86%.
Turning to `NS(=O)(=O)OC[C@H]1C[C@@H](Nc2ncncc2C(=O)c2ccn(Cc3cccc(C(F)(F)F)c3)n2)C[C@@H]1O` [Compound I-140, [(1R,2S,4R)-2-hydroxy-4-{[5-({1-[3-(trifluoromethyl)benzyl]-1H-pyrazol-3-yl}carbonyl)pyrimidin-4-yl]amino}cyclopentyl]methyl sulfamate], the IC50 is under 10 nM and the inhibition at 0.111 µM was 98%.
The corresponding values for `NS(=O)(=O)OC[C@H]1C[C@@H](Nc2ncncc2C(=O)c2ccn(Cc3ccc(F)c(Cl)c3)c2)[C@@H](F)[C@@H]1O` [Compound I-141, {(1R,2R,3R,4R)-4-[(5-{[1-(3-chloro-4-fluorobenzyl)-1H-pyrrol-3-yl]carbonyl}pyrimidin-4-yl)amino]-3-fluoro-2-hydroxycyclopentyl}methy1 sulfamate] are under 10 nM and 99%.
